Read-outs that look alike come from different tables or passages of the source. Positions of bridges follow the written chain, without caps; N, C: chain ends. Non-standard residues stand in square brackets, D forms with d. Residues, ends and D or L forms follow the SMILES beside them. ξ: configuration not given here. Phe(F5) = N[C@@H](Cc1c(F)c(F)c(F)c(F)c1F)C(=O)O; Bta = N[C@@H](Cc1csc2ccccc12)C(=O)O; ξPro(4R-OH) = O=C(O)C1C[C@@H](O)CN1; Hyp = O=C(O)[C@@H]1C[C@@H](O)CN1; NMeF = CN[C@@H](Cc1ccccc1)C(=O)O; dNMeNle = CCCC[C@@H](NC)C(=O)O; NMeNle = CCCC[C@H](NC)C(=O)O; NMeA = CN[C@@H](C)C(=O)O; dDap = NC[C@@H](N)C(=O)O; Dab = NCC[C@H](N)C(=O)O; Dap = NC[C@H](N)C(=O)O; ξP = O=C(O)C1CCCN1; ξC = NC(CS)C(=O)O; Sar = CNCC(=O)O
Experiments:
Human PD-L1/PD-1 = molecular target: T1, Human PD-L1/PD-1 (Homo sapiens, UniProt Q9NZQ7); assay: HTRF PD-1-Ig/PD-L1-His binding assay (human PD-L1)
T1 construct: made in house; host or cells: HEK293T
T1 sequence (Q9NZQ7 with tags, fused parts or gaps): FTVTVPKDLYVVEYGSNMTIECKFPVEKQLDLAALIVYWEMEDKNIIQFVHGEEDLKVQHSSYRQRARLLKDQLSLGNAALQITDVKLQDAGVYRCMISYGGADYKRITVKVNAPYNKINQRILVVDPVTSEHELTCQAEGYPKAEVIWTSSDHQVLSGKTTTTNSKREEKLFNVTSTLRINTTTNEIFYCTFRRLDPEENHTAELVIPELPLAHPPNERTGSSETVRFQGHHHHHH
Outline: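 The time-resolved fluorescence signal comes from Eu-cryptate anti-Ig (1 nM) and APC anti-His (20 nM) antibodies bound to a PD-1-Ig/PD-L1-His complex. Both partners lack transmembrane regions.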

[1] = molecular target: T2, LK35.2-hPD-L1 cells / PE-labeled PD-1-Ig (Homo sapiens, UniProt Q9NZQ7); assay: LK35.2-hPD-L1 cell binding high-content screening assay; type: cell-based
T2 construct: expressed in transfected cells; host or cells: LK35.2 mouse B cell line
T2 sequence (Q9NZQ7 19-290): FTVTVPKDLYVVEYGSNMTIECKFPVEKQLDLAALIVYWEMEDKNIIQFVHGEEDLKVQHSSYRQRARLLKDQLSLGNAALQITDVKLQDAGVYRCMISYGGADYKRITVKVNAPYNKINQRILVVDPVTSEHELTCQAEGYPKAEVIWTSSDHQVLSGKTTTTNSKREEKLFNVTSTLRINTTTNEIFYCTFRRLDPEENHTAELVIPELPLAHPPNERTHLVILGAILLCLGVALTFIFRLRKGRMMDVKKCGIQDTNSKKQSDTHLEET
Outline: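 Readout: high-content imaging of PE-PD-1-Ig bound to LK35.2-hPD-L1 cells. Cells plated overnight (RPMI/10% FCS); compound + 1 nM PE-PD-1-Ig, 1 h, 37 °C; 3× dPBS wash before imaging.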

[2] = cluster symbol, read-out: HTRF IC50 cluster
[3] = cluster symbol, cell line of CBA not given (LK35.2-hPD-L1 or 293T-hPD-L1), read-out: CBA IC50 cluster
[4] = cell binding assay, cell line not given, cluster symbol, read-out: CBA IC50 cluster

Row | Compound | IC50 (Human PD-L1/PD-1; read-out: HTRF IC50 value) [nM] | IC50 ([1]; cell line of CBA not given (LK35.2-hPD-L1 or 293T-hPD-L1), read-out: CBA IC50 value) [nM] | IC50 (Human PD-L1/PD-1; [2]) [nM] | IC50 [1, 3] [nM] | IC50 [1, 4] [nM]
1 | CCCC[C@H]1C(=O)N(C)CC(=O)N[C@@H](CC(=O)O)C(=O)N[C@@H](C(C)C)C(=O)N(C)[C@@H](Cc2ccccc2)C(=O)N[C@@H](Cc2ccc(O)cc2)C(=O)N(C)CC(=O)N[C@@H](Cc2c[nH]c3ccccc23)C(=O)N[C@@H](Cc2c(F)c(F)c(F)c(F)c2F)C(=O)N[C@@H](CC(C)C)C(=O)N[C@H](C(=O)NCC(N)=O)CSCC(=O)N[C@@H](Cc2ccccc2)C(=O)N(C)[C@@H](Cc2ccccc2)C(=O)N1C [Example 3080] ({CH2CO}-F[NMeF][NMeNle][Sar]DV[NMeF]Y[Sar]W[Phe(F5)]LCG-NH2; thioether N-13) | > 10000 | > 10000 |  |  | 
2 | CCCC[C@@H]1C(=O)N(C)[C@H](CCCC)C(=O)N[C@@H](C)C(=O)N[C@@H](C(=O)NCC(N)=O)CSCC(=O)N[C@@H](Cc2ccc(O)cc2)C(=O)N2CCCC2C(=O)N[C@H](CC(=O)O)C(=O)N2CCC[C@H]2C(=O)N[C@H](CN)C(=O)N[C@@H](CCC(N)=O)C(=O)N2CCCC2C(=O)N[C@H](Cc2c[nH]c3ccccc23)C(=O)N[C@@H](CCN)C(=O)N[C@@H](Cc2c[nH]c3ccccc23)C(=O)N1C (stereo partly shown) [Example 1208] ({CH2CO}-Y[ξP][dD]P[dDap]Q[ξP][dW][Dab]W[dNMeNle][dNMeNle]A[dC]G-NH2; thioether N-14) |  |  | 0.385 to 6.74 | 4.78 to 72.9 | 
3 | CCCC[C@H]1C(=O)N(C)[C@@H](CCCC)C(=O)N[C@@H](CN)C(=O)N[C@H](C(=O)NCC(N)=O)CSCC(=O)N[C@@H](Cc2ccc(O)cc2)C(=O)N(C)[C@@H](C)C(=O)N[C@@H](CC(N)=O)C(=O)N2CCC[C@H]2C(=O)N[C@@H](CN)C(=O)N[C@@H](CCC(=O)O)C(=O)N2C[C@H](O)C[C@H]2C(=O)N[C@@H](Cc2c[nH]c3ccccc23)C(=O)N[C@@H](CCN)C(=O)N[C@@H](Cc2c[nH]c3ccccc23)C(=O)N1C [Example 5060] ({CH2CO}-Y[NMeA]NP[Dap]E[Hyp]W[Dab]W[NMeNle][NMeNle][Dap]CG-NH2; thioether N-14) |  |  | 0.385 to 6.74 |  | 4.78 to 72.9
4 | CCCC[C@H]1C(=O)N(C)CC(=O)N[C@@H](CC(=O)O)C(=O)N[C@@H](C(C)C)C(=O)N(C)[C@@H](Cc2ccccc2)C(=O)N[C@@H](Cc2ccc(O)cc2)C(=O)N(C)CC(=O)N[C@@H](Cc2c[nH]c3ccccc23)C(=O)N[C@@H](Cc2ccc(O)cc2)C(=O)N2CCC[C@H]2C(=O)N[C@H](C(=O)NCC(N)=O)CSCC(=O)N[C@@H](Cc2ccccc2)C(=O)N(C)[C@@H](Cc2ccccc2)C(=O)N1C [Example 3561] (HELM PEPTIDE1{[O=C(C[*:3])[*:2]].F.[meF].[CCCC[C@@H](C(=O)[*:2])N(C)[*:1]].[Sar].D.V.[meF].Y.[Sar].W.Y.P.C.G.[am]}$PEPTIDE1,PEPTIDE1,1:R3-14:R3$$$V2.0) |  |  | > 30.5 |  | > 74.3
5 | CCCC[C@H]1C(=O)N2CCC[C@@H]2C(=O)N[C@@H](CC(=O)O)C(=O)N[C@@H](C(C)C)C(=O)N(C)[C@@H](Cc2ccccc2)C(=O)N[C@@H](CCCCN)C(=O)N2CCC[C@@H]2C(=O)N[C@@H](Cc2c[nH]c3ccccc23)C(=O)N[C@@H](Cc2ccc(O)cc2)C(=O)N[C@@H](CC(C)C)C(=O)N[C@H](C(=O)NCC(N)=O)CSCC(=O)N[C@@H](Cc2ccccc2)C(=O)N(C)[C@@H](Cc2ccccc2)C(=O)N1C [Example 3187] (HELM PEPTIDE1{[O=C(C[*:3])[*:2]].F.[meF].[CCCC[C@@H](C(=O)[*:2])N(C)[*:1]].[dP].D.V.[meF].K.[dP].W.Y.L.C.G.[am]}$PEPTIDE1,PEPTIDE1,1:R3-14:R3$$$V2.0) |  |  | 6.76 to 30.3 | 0.158 to 4.71 | 

The next lines start with the values.

Row | IC50 (Human PD-L1/PD-1; read-out: HTRF IC50 value) [nM] | IC50 ([1]; cell line of CBA not given (LK35.2-hPD-L1 or 293T-hPD-L1), read-out: CBA IC50 value) [nM] | IC50 (Human PD-L1/PD-1; [2]) [nM] | IC50 [1, 3] [nM] | IC50 [1, 4] [nM] | Compound
6 |  |  | 6.76 to 30.3 | 4.78 to 72.9 |  | CC(C)C[C@@H]1NC(=O)[C@H](Cc2ccc(O)cc2)NC(=O)[C@H](Cc2c[nH]c3ccccc23)NC(=O)CN(C)C(=O)[C@H](Cc2ccc(O)cc2)NC(=O)[C@H](Cc2ccccc2)N(C)C(=O)[C@H](C(C)C)NC(=O)[C@H](CC(=O)O)NC(=O)CN(C)C(=O)[C@H](CC(C)C)N(C)C(=O)[C@H](Cc2ccccc2)N(C)C(=O)[C@H](Cc2ccccc2)NC(=O)CSC[C@@H](C(=O)NCC(N)=O)NC1=O [Example 3136] (HELM PEPTIDE1{[O=C(C[*:3])[*:2]].F.[meF].[meL].[Sar].D.V.[meF].Y.[Sar].W.Y.L.C.G.[am]}$PEPTIDE1,PEPTIDE1,1:R3-14:R3$$$V2.0)
7 |  |  | 6.76 to 30.3 | 4.78 to 72.9 |  | CCCC[C@H]1C(=O)N(C)[C@@H](CCCC)C(=O)N[C@@H](CN)C(=O)N[C@H](C(=O)NCC(N)=O)CSCC(=O)N[C@@H](Cc2ccc(O)cc2)C(=O)N2CCC[C@H]2C(=O)N[C@@H](CC(=O)O)C(=O)N2CCC[C@H]2C(=O)N[C@@H](CN)C(=O)N[C@@H](CCC(N)=O)C(=O)N2C[C@H](O)CC2C(=O)N[C@@H](Cc2c[nH]c3ccccc23)C(=O)N[C@@H](CCN)C(=O)N[C@@H](Cc2csc3ccccc23)C(=O)N1C (stereo partly drawn) [Example 1228] ({CH2CO}-YPDP[Dap]Q[ξPro(4R-OH)]W[Dab][Bta][NMeNle][NMeNle][Dap]CG-NH2; thioether N-14)
8 |  |  | > 30.5 |  | > 74.3 | CCCC[C@H]1C(=O)N(C)[C@@H](CCCC)C(=O)N[C@@H](CCCNC(=N)N)C(=O)N[C@H](C(=O)NCC(N)=O)CSCC(=O)N[C@@H](Cc2ccccc2)C(=O)N(C)[C@@H](C)C(=O)N[C@@H](CC(N)=O)C(=O)N2CCC[C@H]2C(=O)N[C@@H](Cc2cnc[nH]2)C(=O)N[C@@H](CC(C)C)C(=O)N(C)CC(=O)N[C@@H](Cc2c[nH]c3ccccc23)C(=O)N[C@@H](CN)C(=O)N[C@@H](Cc2c[nH]c3ccccc23)C(=O)N1C [Example 5002] ({CH2CO}-F[NMeA]NPHL[Sar]W[Dap]W[NMeNle][NMeNle]RCG-NH2; thioether N-14)
9 |  |  | 0.385 to 6.74 |  | 0.158 to 4.71 | CCCC[C@H]1C(=O)N(C)[C@@H](CCCC)C(=O)N[C@@H](CCCNC(=N)N)C(=O)NC(C(=O)NCC(N)=O)CSCC(=O)N[C@@H](Cc2ccc(O)cc2)C(=O)N(C)[C@@H](C)C(=O)N[C@@H](CC(N)=O)C(=O)N2CCC[C@H]2C(=O)N[C@@H](CC(N)=O)C(=O)N[C@@H](CC(C)C)C(=O)N2C[C@H](O)C[C@H]2C(=O)N[C@@H](Cc2c[nH]c3ccccc23)C(=O)N[C@@H](CO)C(=O)N[C@@H](Cc2c[nH]c3ccccc23)C(=O)N1C (stereo partly shown) [Example 9061] ({CH2CO}-Y[NMeA]NPNL[Hyp]WSW[NMeNle][NMeNle]R[ξC]G-NH2; thioether N-14)
10 |  |  | 0.385 to 6.74 |  | 0.158 to 4.71 | CCCC[C@H]1C(=O)N(C)[C@@H](CCCC)C(=O)N[C@@H](C)C(=O)N[C@H](C(=O)NCC(N)=O)CSCC(=O)N[C@@H](Cc2ccc(O)cc2)C(=O)N(C)[C@@H](C)C(=O)N[C@@H](CC(=O)O)C(=O)N2CCC[C@H]2C(=O)N[C@@H](Cc2cnc[nH]2)C(=O)N[C@@H](CCC(=O)O)C(=O)N2C[C@H](O)C[C@H]2C(=O)N[C@@H](Cc2c[nH]c3ccccc23)C(=O)N[C@@H](CCN)C(=O)N[C@@H](Cc2c[nH]c3ccccc23)C(=O)N1C [Example 5037] ({CH2CO}-Y[NMeA]DPHE[Hyp]W[Dab]W[NMeNle][NMeNle]ACG-NH2; thioether N-14)
11 |  |  | > 30.5 |  | > 74.3 | CCCC[C@H]1C(=O)N(C)CC(=O)N[C@@H](CC(=O)O)C(=O)N[C@@H](C(C)C)C(=O)N(C)[C@@H](Cc2ccccc2)C(=O)N[C@@H](Cc2ccc(O)cc2)C(=O)N(C)CC(=O)N[C@@H](Cc2c[nH]c3ccccc23)C(=O)N[C@@H](Cc2ccc(O)cc2)C(=O)N[C@@H](CC(C)C)C(=O)N[C@H](C(=O)NCC(N)=O)CSCC(=O)N[C@@H](Cc2ccccc2)C(=O)N(C)[C@@H](Cc2cccc3ccccc23)C(=O)N1C (single isomer, unassigned) [Example 3585-A]
